Experimental data taken from publication PMC4832832 (Archiv Der Pharmazie, 2015).
Entries after “also recorded” stand apart in the source; their conditions may differ. Where two headings read alike, the source gives them in different places.

Tests used:
Punta Toro virus = experiment: microbe, parasite or virus in culture; assay type: cell-based
Coxsackie virus B4 [1] = assay type: cell-based; settings: for EC50: read-out: EC50 Coxsackie virus B4, reduce virus-induced cytopathogenicity by 50%
[2] = system: Vesicular stomatitis virus; assay type: cell-based; settings: for EC50: read-out: EC50 Vesicular stomatitis virus
Reovirus‐1 = experiment: organism not typed; assay type: cell-based
[3] = system: Respiratory syncytial virus; assay type: cell-based; settings: for inhibitory activity against respiratory syncytial virus (in words): HeLa cells
Sindbis virus = experiment: microbe, parasite or virus in culture; assay type: cell-based
Coxsackie virus B4 [4] = assay type: cell-based; settings: Vero cell cultures
Parainfluenza‐3 virus = experiment: organism not typed; assay type: cell-based
Vero cells = settings: Vero cell cultures
HeLa cells = settings: HeLa cell cultures
[5] = system: Varicella-zoster virus (VZV) TK+(Oka strain); assay type: cell-based; settings: for activity against TK+ VZV strain (in words): HEL cells; for activity against varicella‐zoster virus (in words): strain not given
[6] = system: Varicella-zoster virus (VZV) TK-(Oka strain); assay type: cell-based; settings: HEL cells
[7] = Vero cell cultures, unit of the DS-10.000 line
[8] = HeLa cell cultures, unit of the DS-10.000 line
[9] = microscopically detectable alteration of normal cell morphology

Compound: dextran sulfate [DS‐10.000, reference compound]
- EC50 Punta Toro virus (Punta Toro virus; [7]): 8.9 µg/mL
- EC50 Coxsackie virus B4 (Coxsackie virus B4 [1]; [8]): >100 µg/mL
- EC50 Vesicular stomatitis virus [2]: 12 µg/mL
- EC50 Reovirus‐1 (Reovirus‐1; [7]): >100 µg/mL
- EC50 Respiratory syncytial virus [3, 8]: 1.3 ± 0.7 µg/mL
- EC50 Sindbis virus (Sindbis virus; [7]): 8.9 µg/mL
- EC50 Coxsackie virus B4 (Coxsackie virus B4 [4]; unit of the DS-10.000 line): >100 µg/mL
- EC50 Parainfluenza‐3 virus (Parainfluenza‐3 virus; [7]): >100 µg/mL
- Minimum cytotoxic concentration (Vero cells; unit of the DS-10.000 line): >100 µg/mL
- Minimum cytotoxic concentration (HeLa cells; unit of the DS-10.000 line): >100 µg/mL

Compound: Diethyl [(4‐(1‐(2,3,5‐tri‐O‐benzoyl‐β‐D‐ribofuranos‐1‐yl)‐1,2,3‐triazol‐4‐yl)phenyl)(2‐bromophenylamino)methyl]phosphonate [Compound 4c]
- EC50 (Coxsackie virus B4 [1]; HeLa cell cultures): > 100 µM
- EC50 [2]: > 100 µM
- inhibitory activity against respiratory syncytial virus (in words) [3]: slight inhibition; also recorded: modest inhibitory activity
- Minimum cytotoxic concentration (HeLa cells; [9]): >100 µM

Compound: Diethyl [(4‐(1‐(β‐D‐ribofuranos‐1‐yl)‐1,2,3‐triazol‐4‐yl)phenyl)(4‐chloro‐2‐methylphenylamino)methyl]phosphonate [Compound 5f]
- activity against TK+ VZV strain (in words) [5]: weak activity
- activity against varicella‐zoster virus (in words) [5]: modest activity
- activity against TK− VZV strain (in words) [6]: weak activity

Compound: Diethyl [(4‐(1‐(β‐D‐ribofuranos‐1‐yl)‐1,2,3‐triazol‐4‐yl)phenyl)(2‐bromophenylamino)methyl]phosphonate [Compound 5c]
- activity against TK+ VZV strain (in words) [5]: weak activity
- activity against varicella‐zoster virus (in words) [5]: modest activity
- activity against TK− VZV strain (in words) [6]: weak activity

Compound: Diethyl [(4‐(1‐(2,3,5‐tri‐O‐benzoyl‐β‐D‐ribofuranos‐1‐yl)‐1,2,3‐triazol‐4‐yl)phenyl)(4‐bromophenylamino)methyl]phosphonate [Compound 4d]
- EC50 (Coxsackie virus B4 [1]; HeLa cell cultures): > 100 µM
- EC50 [2]: > 100 µM
- Minimum cytotoxic concentration (HeLa cells; [9]): >100 µM

Compound: Diethyl [(4‐(1‐(β‐D‐ribofuranos‐1‐yl)‐1,2,3‐triazol‐4‐yl)phenyl)(2‐naphthalenylamino)methyl]phosphonate [Compound 5g]
- activity against TK+ VZV strain (in words) [5]: weak activity
- activity against varicella‐zoster virus (in words) [5]: modest activity
- activity against TK− VZV strain (in words) [6]: weak activity

Compound: Diethyl [(4‐(1‐(2,3,5‐tri‐O‐benzoyl‐β‐D‐ribofuranos‐1‐yl)‐1,2,3‐triazol‐4‐yl)phenyl)(benzylamino)methyl]phosphonate [Compound 4h]
- activity against Coxsackie virus B4 (in words) (Coxsackie virus B4 [1]; HeLa cells): no activity
- activity against Coxsackie virus B4 (in words) (Coxsackie virus B4 [4]): some activity; also recorded: modest inhibitory activity
- EC50 (Coxsackie virus B4 [4]; read-out: EC50 Coxsackie virus B4, reduce virus-induced cytopathogenicity by 50%): 20 µM
- Minimum cytotoxic concentration (Vero cells; [9]): >100 µM

Compound: Diethyl [(4‐(1‐(2,3,5‐tri‐O‐benzoyl‐β‐D‐ribofuranos‐1‐yl)‐1,2,3‐triazol‐4‐yl)phenyl)(2‐chlorophenylamino)methyl]phosphonate [Compound 4b]
- EC50 (Coxsackie virus B4 [1]; HeLa cell cultures): > 100 µM
- EC50 [2]: > 100 µM
- inhibitory activity against respiratory syncytial virus (in words) [3]: slight inhibition; also recorded: modest inhibitory activity
- Minimum cytotoxic concentration (HeLa cells; [9]): >100 µM

Compound: NC(=O)c1ncn([C@@H]2O[C@H](CO)[C@@H](O)[C@H]2O)n1 [Ribavirin, ribavirin]
- EC50 (Punta Toro virus; Punta Toro virus, Vero, read-out: EC50 Punta Toro virus): 112 µM
- EC50 (Reovirus‐1; Vero, read-out: EC50 Reovirus‐1): > 250 µM
- EC50 (Sindbis virus; Sindbis virus, Vero, read-out: EC50 Sindbis virus): > 250 µM
- EC50 (Parainfluenza‐3 virus; Vero, read-out: EC50 Parainfluenza‐3 virus): 85 µM
- Minimum cytotoxic concentration (Vero cells; [9]): >250 µM
- Minimum cytotoxic concentration (HeLa cells; [9]): >250 µM
